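48-hour exposure; five concentrations; linearly interpolated endpoints. GI50 marks 50% less growth. TGI: total growth inhibition.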
Assays:
Experiment in all cases: NCI anticancer screen, dose series, 48 h
[1] = system: LOX IMVI melanoma
[2] = system: CCRF-CEM leukemia
[3] = system: SR leukemia
[4] = system: K-562 leukemia
[5] = system: NCI/ADR-RES ovarian
[6] = system: MALME-3M melanoma
[7] = system: RPMI-8226 leukemia
[8] = system: IGROV1 ovarian
[9] = system: SK-MEL-28 melanoma
[10] = system: M14 melanoma
[11] = system: OVCAR-4 ovarian
[12] = system: UACC-62 melanoma
[13] = system: SF-268 CNS
[14] = system: HCT-15 colon
[15] = system: ACHN renal
[16] = system: MDA-MB-435
[17] = system: PC-3 prostate
[18] = system: NCI-H226 lung
[19] = system: MOLT-4 leukemia
[20] = system: EKVX NSCLC
[21] = system: BT-549 breast
[22] = system: SW-620 colon
[23] = system: SN12C renal
[24] = system: TK-10 renal
[25] = system: SF-539 CNS
[26] = system: SF-295 CNS
[27] = system: CAKI-1 renal
[28] = system: OVCAR-8 ovarian
[29] = system: 786-0 renal
[30] = system: SNB-19 CNS
[31] = system: KM12 colon
[32] = system: SK-MEL-5 melanoma
[33] = system: UACC-257 melanoma
[34] = system: MDA-MB-231 breast
[35] = system: COLO 205 colon
[36] = system: HOP-92 NSCLC
[37] = system: UO-31 renal
[38] = system: SK-OV-3 ovarian
[39] = system: MCF7 breast
[40] = system: NCI-H460 lung
[41] = system: RXF 393 renal
[42] = system: DU-145 prostate
[43] = system: OVCAR-5 ovarian
[44] = system: OVCAR-3 ovarian
[45] = system: NCI-H23 lung
[46] = system: HS 578T breast
[47] = system: U251 CNS
[48] = system: A549 NSCLC
[49] = system: T-47D breast
[50] = system: SK-MEL-2 melanoma
[51] = system: HCT-116 colon
[52] = system: A498 renal
[53] = system: HOP-62 NSCLC
[54] = system: NCI-H522 lung
[55] = system: SNB-75 CNS
[56] = system: HCC-2998 colon
[57] = system: HT29 colon
[58] = system: HL-60(TB) leukemia

CN1CCN(Cc2ccc(NC(=O)c3cncc(C#Cc4cnc5ccc(OCCCS(C)(=O)=O)nn45)c3)cc2C(F)(F)F)CC1
GI50 [1]: 305 nM | TGI [1]: 1020 nM | GI50 [2]: 213 nM | TGI [2]: 22400 nM | GI50 [3]: 207 nM | TGI [3]: 1470 nM | GI50 [4]: 12.3 nM | TGI [4]: 2170 nM | GI50 [5]: 8490 nM | TGI [5]: 34100 nM | GI50 [6]: 128 nM | TGI [6]: 576 nM | GI50 [7]: 1190 nM | TGI [7]: 3410 nM | GI50 [8]: 258 nM | TGI [8]: 2450 nM | GI50 [9]: 796 nM | TGI [9]: 2550 nM | GI50 [10]: 171 nM | TGI [10]: 701 nM | GI50 [11]: 547 nM | TGI [11]: 1930 nM | GI50 [12]: 571 nM | TGI [12]: 1520 nM | GI50 [13]: 690 nM | TGI [13]: 1720 nM | GI50 [14]: 1340 nM | TGI [14]: 4260 nM | GI50 [15]: 1390 nM | TGI [15]: 4460 nM | GI50 [16]: 221 nM | TGI [16]: 1000 nM | GI50 [17]: 873 nM | TGI [17]: 4970 nM | GI50 [18]: 131 nM | TGI [18]: 1030 nM | GI50 [19]: 272 nM | TGI [19]: 3710 nM | GI50 [20]: 1120 nM | TGI [20]: 4280 nM | GI50 [21]: 469 nM | TGI [21]: 1390 nM | GI50 [22]: 193 nM | TGI [22]: 1050 nM | GI50 [23]: 415 nM | TGI [23]: 2200 nM | GI50 [24]: 1130 nM | TGI [24]: 2940 nM | GI50 [25]: 164 nM | TGI [25]: 906 nM | GI50 [26]: 1090 nM | TGI [26]: 4770 nM | GI50 [27]: 459 nM | TGI [27]: 2680 nM | GI50 [28]: 1000 nM | TGI [28]: 4330 nM | GI50 [29]: 359 nM | TGI [29]: 1170 nM | GI50 [30]: 1290 nM | TGI [30]: 4460 nM | GI50 [31]: 5 nM | TGI [31]: 1400 nM | GI50 [32]: 775 nM | TGI [32]: 1740 nM | GI50 [33]: 1030 nM | TGI [33]: 3470 nM | GI50 [34]: 166 nM | TGI [34]: 1050 nM | GI50 [35]: 377 nM | TGI [35]: 1150 nM | GI50 [36]: 101 nM | TGI [36]: 393 nM | GI50 [37]: 1330 nM | TGI [37]: 3770 nM | GI50 [38]: 868 nM | TGI [38]: 3470 nM | GI50 [39]: 213 nM | TGI [39]: 2830 nM | GI50 [40]: 311 nM | TGI [40]: 953 nM | GI50 [41]: 803 nM | TGI [41]: 1630 nM | GI50 [42]: 691 nM | TGI [42]: 3790 nM | GI50 [43]: 892 nM | TGI [43]: 4570 nM | GI50 [44]: 795 nM | TGI [44]: 3040 nM | GI50 [45]: 420 nM | TGI [45]: 1560 nM | GI50 [46]: 318 nM | TGI [46]: 1660 nM | GI50 [47]: 554 nM | TGI [47]: 2610 nM | GI50 [48]: 1090 nM | TGI [48]: 5930 nM | GI50 [49]: 783 nM | TGI [49]: 12200 nM | GI50 [50]: 216 nM | TGI [50]: 783 nM | GI50 [51]: 67.3 nM | TGI [51]: 594 nM | GI50 [52]: 863 nM | TGI [52]: 1620 nM | GI50 [53]: 833 nM | TGI [53]: 2760 nM | GI50 [54]: 460 nM | TGI [54]: 1280 nM | GI50 [55]: 338 nM | TGI [55]: 1130 nM | GI50 [56]: 687 nM | TGI [56]: 2750 nM | GI50 [57]: 475 nM | TGI [57]: 1890 nM | GI50 [58]: 229 nM | TGI [58]: 802 nM
